Laboratory results from patent US20030186817A1, “SUBSTITUTED 2,4-DIAMINO-1,3,5-TRIAZINES, PROCESSES FOR THEIR PREPARATION AND THEIR USE AS HERBICIDES AND PLANT GROWTH REGULATORS” (priority 1998, published 2003).

Tests used:
Assay type in all cases: in vivo
[1] = tested on: Cyperus iria and Echinocloa crus-galli; assay: Action on weeds in rice (paddy rice conditions, visual rating); conditions: dammed height of water 2-3 cm, about three weeks after application; also: test concentration or dose not given here
Source text: Typical rice weeds such as Echinocloa crus galli and Cyperus iria are cultivated in a greenhouse under paddy rice conditions ([…] height of water: 2-3 cm). After the treatment, the test plants are set up in a greenhouse under optimum growth conditions and are maintained in this way under these conditions throughout the test period. About three weeks after application, evaluation is made by visual rating of the damage to the plants by comparison with untreated controls.

[2] = tested on: Stellaria media, Amaranthus retroflexus, Sinapis avreuse, Avena fatura, Lolium multiflorum and Setaria viridis; assay: Pre-emergence action against weeds (greenhouse pot test, visual rating); conditions: application rate of 3.0 kg or less of active substance per hectare, trial period of 3 to 4 weeks
Source text: Seeds of mono- and dicotyledonous weed plants are placed in sandy loam soil in cardboard pots and covered with soil. The novel compounds, formulated as wettable powders or emulsion concentrates, are then applied to the surface of the soil cover in the form of an aqueous suspension or emulsion at an application rate of from 600 to 800 l of water/ha (converted), in various dosages. After the treatment, the pots are placed in a greenhouse and kept under good growth conditions for the weeds. After the test plants have emerged after a trial period of 3 to 4 weeks, the damage to the plants or the negative effect on emergence is rated visually by comparison with untreated controls. As shown by the test results, the novel compounds have good herbicidal pre-emergence activity against a broad spectrum of weed grasses and broad-leaved weeds.

[3] = tested on: Stellaria media, Amaranthus retroflexus, Sinapis avreuse, Avena fatura, Lolium multiflorum and Setaria viridis; assay: Post-emergence action against weeds (greenhouse pot test, visual rating); conditions: three-leaf stage, application rate of 3.0 kg or less of active substance per hectare, 3 to 4 weeks in greenhouse
Experimental: Seeds of mono- and dicotyledonous weeds are placed in sandy loam soil in cardboard pots, covered with soil and cultivated in a greenhouse under good growth conditions. Two to three weeks after sowing, the test plants are treated at the three-leaf stage. The novel compounds, formulated as wettable powders or emulsion concentrates, are sprayed in various dosages onto the green parts of the plant at an application rate of from 600 to 8001 of water/ha (converted), and, after the test plants have remained in the greenhouse for 3 to 4 weeks under optimum growth conditions, the action of the preparations is rated visually by comparison with untreated controls. The novel compositions also have good post-emergence herbicidal activity against a broad spectrum of economically important weed grasses and broad-leaved weeds.

SMILES | herbicidal activity against rice weeds (visual rating of damage) [1] | herbicidal activity pre-emergence (damage to the plants or negative effect on emergence, rated visually) [2] | herbicidal activity post-emergence (rated visually) [3]
CCC(CCOc1cccc(OC)c1)Nc1nc(N)nc(C(F)(F)C(F)F)n1 (stereo not drawn) [Example 228] | very good herbicidal activity | good and in most cases very good herbicidal activity | good and in most cases very good herbicidal activity
CC(COCc1ccccc1)Nc1nc(N)nc(C(C)(C)F)n1 (stereo not drawn) [Example 201] | very good herbicidal activity | good and in most cases very good herbicidal activity | good and in most cases very good herbicidal activity
Cc1cccc(OCCC(C)Nc2nc(N)nc(C(C)(C)F)n2)c1 (stereo not drawn) [Example 253] | very good herbicidal activity | good and in most cases very good herbicidal activity | good and in most cases very good herbicidal activity
CC(CCOc1ccccc1)Nc1nc(N)nc(C(C)(C)F)n1 (stereo not drawn) [Example 368, 2-amino-4-fluoroisopropyl-6-[N-(1-methyl-3-phenoxyprop-1-yl)amino]-1,3,5-triazine] | very good herbicidal activity | good and in most cases very good herbicidal activity | good and in most cases very good herbicidal activity
Cc1cccc(OCCC(C)Nc2nc(N)nc(C(F)(F)C(F)F)n2)c1 (stereo not drawn) [Example 326] | very good herbicidal activity | good and in most cases very good herbicidal activity | good and in most cases very good herbicidal activity
CC(CCOc1ccccc1)Nc1nc(N)nc(C(C)C)n1 (stereo not drawn) [Example 336] | very good herbicidal activity | good and in most cases very good herbicidal activity | good and in most cases very good herbicidal activity
CCC(CCOc1cccc(Cl)c1)Nc1nc(N)nc(C(F)(F)C(F)F)n1 (stereo not drawn) [Example 347] | very good herbicidal activity | good and in most cases very good herbicidal activity | good and in most cases very good herbicidal activity
CCC(CCOc1cccc(C)c1)Nc1nc(N)nc(C(C)C)n1 (stereo not drawn) [Example 358] | very good herbicidal activity | good and in most cases very good herbicidal activity | good and in most cases very good herbicidal activity
COc1cccc(OCCC(C)Nc2nc(N)nc(C(F)(F)C(F)F)n2)c1 (stereo not drawn) [Example 311] | very good herbicidal activity | good and in most cases very good herbicidal activity | good and in most cases very good herbicidal activity
Cc1ccc(COCC(C)Nc2nc(N)nc(C(C)(C)F)n2)cc1 (stereo not drawn) [Example 183] | very good herbicidal activity | good and in most cases very good herbicidal activity | good and in most cases very good herbicidal activity
